Earlier results, collected in patent US20210379001A1, “SUPPLEMENT INCLUDING GAMMA-AMINOBUTYRIC ACID FOR RESTORING GROWTH HORMONE LEVELS” (1198966 B.C. LTD., priority 2020, published 2021).

Test system: GABA levels in rat striatal tissue and striatal extracellular fluid

NC(=O)CC[C@H](N)C(=O)O [L-Glutamine]
striatal GABA levels (2,5 h after oral 2.0 g/kg of glutamine, vehicle-treated rats 1.76+/−0.04): 2.00 ± 0.15 µmol/g | response evoked by NMDA, over baseline (ECF GABA, NMDA alone 70%, P<0.05): 120% | increase of ECF GABA concentrations (rat striatal extracellular fluid, P<0.05): 30%
